System: mini-explants from the dermoepidermal junction of the hoof
Experiment: In vitro study of hoof laminar mini-explants pre-incubated with tirilazad, then Bothrops alternatus venom, as a model for laminitis; histopathology (H-E, PAS)
Type: cell-based
Protocol: An in vitro study was conducted to analyze the protective effects of tirilazad mesylate on cellular degeneration as a result of Bothrops alternatus snake venom as a model for laminitis. Explant tissue samples were obtained from the dermoepidermal junction of the hoof of the right forelimb under nervous system block without the need for euthanasia.
Under sterile conditions, laminar cuts (mini-explants) were made of each explant and the tissue washed with physiological solution. The mini-explants were pre-incubated for 5 hours with tirilazad and then for 24 hours with Bothrops venom. Culture medium was as follows: Dulbecco's […] (DMEM, GIBCO-Invitrogen) with 10% heat-inactivated fetal bovine serum (FBS, GIBCO-Invitrogen), L-Glutamine (29.2 mg/mL), Penicillin (10,000 units/mL), and Streptomycin (10,000 μg/mL, GIBCO-Invitrogen) as antibiotics.
Histopathology: Tissues were processed with classical histological techniques, e.g., cutting by microtome (Minot) and stained with hematoxylin-eosin (H-E) and Periodic Acid Schiff (PAS) stains.

[1] = Tirilazad 1 μM (5 hours pre-incubation) + venom 75 μg/ml (24 hours), listed as tirilazad
[2] = Tirilazad 1 μM, no venom, listed as tirilazad
[3] = Tirilazad 3 μM (5 hours pre-incubation) + venom 75 μg/ml (24 hours)
[4] = Tirilazad 3 μM, no venom, listed as tirilazad
[5] = Tirilazad 10 μM (5 hours pre-incubation) + venom 75 μg/ml (24 hours), listed as tirilazad
[6] = Tirilazad 10 μM, no venom, listed as tirilazad
[7] = Tirilazad 20 μM (5 hours pre-incubation) + venom 75 μg/ml (24 hours)

## C[C@@H]1C[C@H]2[C@@H]3CCC4=CC(=O)C=C[C@]4(C)C3=CC[C@]2(C)[C@H]1C(=O)CN1CCN(c2cc(N3CCCC3)nc(N3CCCC3)n2)CC1 [Tirilazad, 16α-methyl-21-[4-[2,6-bis(1-pyrrolidinyl)-4-pyrimidinyl]-1-piperazinyl]pregna-1,4,9(11)-triene-3,20-dione]
Tirilazad 1 μM (5 hours pre-incubation) + venom 75 μg/ml (24 hours)
  Separation of Basement Membrane: No
[1]
  Cell Nuclei: intense presence of altered epidermal cells
  Pyknosis or Karyopyknosis: with nuclear pyknosis
  Separation of Basement Membrane: did not show separation of the basement membrane
Tirilazad 1 μM, no venom
  Pyknosis or Karyopyknosis: No
  Separation of Basement Membrane: No
[2]
  Cell Nuclei: epidermal cells were normal and showed preserved cytoplasmic and nuclear structure
  Separation of Basement Membrane: did not show separation of the basement membrane
[3]
  Cell Nuclei: intense presence of altered epidermal cells
  Pyknosis or Karyopyknosis: nuclear pyknosis predominating
  Separation of Basement Membrane: slight separation of the basement membrane
Tirilazad 3 μM, no venom
  Separation of Basement Membrane: No
[4]
  Cell Nuclei: slight epidermal cytoplasmic and nuclear alteration
  Separation of Basement Membrane: did not show separation of the basement membrane
Tirilazad 10 μM (5 hours pre-incubation) + venom 75 μg/ml (24 hours)
  Separation of Basement Membrane: No
[5]
  Cell Nuclei: Moderate presence of altered epidermal cells
  Pyknosis or Karyopyknosis: moderate nuclear pyknosis
  Separation of Basement Membrane: did not show separation of the basement membrane
Tirilazad 10 μM, no venom
  Pyknosis or Karyopyknosis: No
  Separation of Basement Membrane: No
[6]
  Cell Nuclei: epidermal cells were normal and showed preserved cytoplasmic and nuclear structure
  Separation of Basement Membrane: did not show separation of the basement membrane
[7]
  Cell Nuclei: intense presence of altered epidermal cells
  Pyknosis or Karyopyknosis: intense nuclear pyknosis
  Separation of Basement Membrane: intense separation of the basement membrane
Tirilazad 20 μM, no venom
  Cell Nuclei: epidermal cells were normal and showed preserved cytoplasmic and nuclear structure
  Pyknosis or Karyopyknosis: No
  Separation of Basement Membrane: intense separation of the basement membrane
Overall conclusion of the explant study
  effect on cellular structure in hoof tissue: provides a protective and/or therapeutic effect
